Measurements reported in patent publication US10278956B1, “Use of intravenous melatonin in patients with ST-elevation myocardial infarction” (priority 2018, dated 2019).
Entries after “also recorded” stand apart in the source; their conditions may differ.

Assays:
[1] = test system: closed-chest porcine model; conditions: combined intracoronary and intravenous treatment; cited from earlier work
[2] = test system: STEMI-patients; assay: Pilot randomized, double-blinded, placebo controlled study of intravenous melatonin before pPCI; infarct size by CMR; type: in vivo, human
Procedure: This pilot study is a prospective, randomized, double-blinded, placebo controlled study of consecutive patients admitted with a STEMI. Additional inclusion criteria were presented within 6 hours of chest pain onset and occlusion of culprit artery with TIMI basal flow grade 0 to 1. Patients randomised to intravenous melatonin received a dose of 12 mg (51.7 μmol, in saline solution, in a volume of 50 ml in an opaque syringe) given by a time period of 60 minutes starting immediately before primary percutaneous coronary intervention (pPCI), by via a catheter positioned within a peripheral vein. The control group received a matching intravenous placebo formulation.
A total of 31 patients were enrolled. Groups were well balanced for age, gender, and cardiovascular risk factors. No significant differences were observed between groups concerning baseline clinical and angiographic characteristics. Randomized patients were divided in 2 groups: Group 1 (patients with ischemia duration 3 hours) and Group 2 (patients with ischemia duration >3 hours). Group 1 there had 17 patients (8 treated with melatonin and 9 with placebo) and in the group 2 there were 14 patients (6 treated with melatonin and 8 with placebo).
Myocardial infarct size was calculated as percentage of left ventricular mass by cardiovascular magnetic resonance (CMR).

[3] = test system: patients with ST-segment elevation myocardial infarction (STEMI); conditions: earlier published trial; cited from earlier work
[4] = Group 1 (≤3 hours ischemia duration), 12 mg intravenous over 60 min starting immediately before pPCI, CMR, *P < 0.01 vs Placebo
[5] = Group 2 (>3 hours ischemia duration), 12 mg intravenous over 60 min starting immediately before pPCI, CMR

In the case of `COc1ccc2[nH]cc(CCNC(C)=O)c2c1` [Melatonin, melatonin], the Myocardial reperfusion injury [1] is given as “did not reduce myocardial reperfusion injury”, the “Infarct size (g)” value [2, 4] is given as 16.53 ± 7.28* g and the “Infarct size (proportion of left ventricular mass) %” value [2, 4] is given as 17.71 ± 7.55* %. The “Infarct size” value [2, 5] was 25.69 ± 7.34 g, the “Infarct size (proportion of left ventricular mass) %” value [2, 5] was 20.62 ± 5.37% and the “Myocardial infarct size compared with placebo” value ([2]; intravenous, given within 3 hours or less after symptom onset (group 1)) was “significantly reduces myocardial infarct size; also recorded: significantly smaller”. The “Effect on myocardial infarct size compared with placebo” value ([2]; time from symptom onset to melatonin administration longer than 3 hours) was “significantly reduced or even opposite effect”, the “Effect on ventricular volumes and LVEF evolution” value [3] was “unfavorable effect” and the “Myocardial infarct size (MIS) compared with placebo” value [3] was “failed to reduce myocardial infarct size”.
